According to patent US20120129842A1, “BISTHIAZOLE INHIBITORS OF PRO-MATRIX METALLOPROTEINASE ACTIVATION” (priority 2010, published 2012):
pIC50: −log10 of the molar value.

Legend:
SCW-induced arthritis = assay: Efficacy in rats with SCW-induced arthritis (ankle thickness, clinical scores); type: in vivo, rat; conditions: 5, 20, 50 mg/kg BID oral
Text: A polyarthritis can be induced in female Lewis rats following i.p. administration of streptococcal cell wall (SCW) […] (PG-PS) (J Exp Med 1977; 146:1585-1602). The model has an acute phase (days 3-7) that is complement and neutrophil-dependent and that resolves. A chronic erosive phase begins at about day ten and is dependent on the development of specific T cell immunity to the PG-GS, which resists digestion and remains present in synovial macrophages for months. Like rheumatoid arthritis, SCW-induced arthritis is reduced by TNF inhibitors, and the dependence of SCW-induced arthritis on macrophages (Rheumatology; 2001; 40:978-987) and the strong association of rheumatoid arthritis severity with synovial-tissue macrophage counts (Ann Rheum Dis; 2005; 64:834-838) makes SCW-arthritis an attractive model for testing potential therapeutic agents. SCW PG-PS 10S (Beckton Dickinson Cat#210866) suspended in saline was vortexed for 30 seconds and sonicated for 3 min with a probe type sonicator prior to injection. […]
To induce arthritis, Female Lewis (LEW/N) rats, 5-6 weeks of age (80-100 g) were injected (i.p.) with SCW PG-PS as described above. […] Each ankle was measured 3 times and averaged, and treatment groups were randomized based on ankle thickness (Table 6). […]

[1] = biological target: proMMP13(1-268) (SEQ ID NO:7) (Homo sapiens, UniProt P45452); assay: ProMMP13/Plasmin P126 Activation Assay; type: biochemical; design: 6xHis (C); made in house; host or cells: HEK293 (transient, secreted); conditions: 8 nM proMMP13, 16 nM plasmin, 40 min 37° C.
Experimental: On the day of assay, proMMP13(1-268) (SEQ ID NO:7) purified from HEK293 cells and plasmin were diluted to 160 nM and 320 nM, respectively, in assay buffer. The reaction volume was 50 μL. […] The plate was sealed and incubated for 40 min at 37° C. […] Plasmin was not reactive towards P-126 substrate under these conditions.

SMILES: Cc1nc(C)c(-c2csc(Nc3cc(S(N)(=O)=O)ccc3OC(C)C)n2)s1 [Example 64, 3-(2′,4′-Dimethyl-[4,5′]bithiazolyl-2-ylamino)-4-isopropoxy-benzenesulfonamide.HBr]
- ankle thickness measurements, effect of treatment (SCW-induced arthritis; Day 18-26): dose-dependent decrease in ankle thickness measurements
- clinical score measurements, effect of treatment (SCW-induced arthritis; significant effects emerging at 20 mg/kg): dose dependent decrease in clinical score measurements
- pIC50 [1]: 5.48
